# Source: patent publication US7968591B2, “1,3-disubstituted 4-methyl-1H-pyrrole-2-carboxamides and their use in medicaments” (Gruenenthal GmbH, priority 2006, dated 2011)
# Tested on: batrachotoxin (BTX) binding site of the sodium channel
# Test: Affinity for the batrachotoxin (BTX) binding site of the sodium channel
# Conditions: rat cerebrocortex synaptosomes, [3H]-Batrachotoxinin A20α benzoate 10 nM
row,Compound,BTX (Na+ channel) (% inhibition at 10 μM) [%]
1,"Cc1ccc(-c2c(C)cn(Cc3ccccc3)c2C(=O)NCCN2CCCC2)cc1 [Example 74, 1-benzyl-4-methyl-3-p-tolyl-1H-pyrrole-2-carboxylic acid (2-pyrrolidin-1-ylethyl)-amide]",101
2,"COc1ccc(CN2CCN(C(=O)c3c(-c4ccco4)c(C)cn3Cc3ccc(F)cc3)CC2)cc1F [Example 75, [1-(4-fluorobenzyl)-3-furan-2-yl-4-methyl-1H-pyrrol-2-yl]-[4-(3-fluoro-4-methoxybenzyl)-piperazin-1-yl]-methanone]",89
3,"COc1ccc(-c2c(C)cn(C)c2C(=O)NCc2ccc(OC)cc2OC)cc1 [Example 76, 3-(4-methoxyphenyl)-1,4-dimethyl-1H-pyrrole-2-carboxylic acid 2,4-dimethoxybenzylamide]",41
4,"Cc1cn(Cc2ccccc2)c(C(=O)NCCN2CCCC2)c1-c1ccccc1 [Example 77, 1-benzyl-4-methyl-3-phenyl-1H-pyrrole-2-carboxylic acid (2-pyrrolidin-1-ylethyl)-amide]",91
5,"Cc1cn(C)c(C(=O)NCCCN2CCCCC2C)c1-c1ccc(Cl)cc1 (stereo not drawn) [Example 78, 3-(4-chlorophenyl)-1,4-dimethyl-1H-pyrrole-2-carboxylic acid [3-(2-methylpiperidin-1-yl)-propyl]-amide]",86
6,"Cc1cn(Cc2ccccc2)c(C(=O)NC(C)c2ccc3ccccc3c2)c1-c1ccco1 (stereo not drawn) [Example 81, 1-benzyl-3-furan-2-yl-4-methyl-1H-pyrrole-2-carboxylic acid (1-naphthalen-2-ylethyl)-amide]",35
